Experimental data reported in patent US7084158B2, “Substituted propargylamines” (Bayer Cropscience S.A., priority 2001, dated 2006).

Assays:
Type in all cases: in vivo
Set-up in all cases: key: compounds were considered to be active when, at a concentration of 500 ppm or less, they had an activity on the harmful organisms of 50% or more
Spodoptera littoralis = assay: Example G: treated L2 larvae and insect diet, Egyptian cotton leafworm mortality; conditions: 500 ppm or less, after 6 days
Experimental: A Petri dish whose bottom was covered with filter paper and which contained about 5 ml of insect diet is prepared. Five L2 larvae of the Egyptian cotton leafworm (Spodoptera littoralis) were counted into a small beaker. 200 μl of an aqueous solution of the formulated preparation to be examined were pipetted into the beaker. The treated larvae were then poured into the Petri dish, and a further 200 μl of the aqueous solution were distributed over the insect diet. The Petri dish was closed and then stored at about 25° C. in a climatized chamber. After 6 days of storage, the effect of the compound on the larvae was determined (mortality). The compounds of the following examples were active: 29, 70, 60, 159, 1005, 1040, 1042, 1044, 1045, 1046, 1047.

Carpocapsa pomonella = assay: Example I: insect diet and L1 larvae sprayed, codling moth mortality; conditions: 500 ppm or less, after 8 days
Experimental: Ten L1 larvae of the codling moth (Carpocapsa pomonella) were placed into a Petri dish filled with insect diet. Insect diet and the larvae used were then sprayed with an aqueous solution of the formulated compound to be examined. The Petri dish was then closed with a lid. After 8 days of storage at about 23° C., the effect of the compound on the larvae was determined (mortality). The compounds of the following examples were active: 60, 70, 1002, 1005.

Plutella maculipennis [1] = assay: Example K: sprayed white cabbage leaf, diamondback moth larvae mortality; conditions: 500 ppm or less, after 3 days
Experimental: A white cabbage leaf was sprayed with an aqueous solution of the formulated compound to be examined. After the spray coating had dried, the treated leaf was populated with larvae of the diamondback moth (Plutella maculipennis). After 3 days of storage at about 23° C., the effect of the compound on the larvae was determined (mortality). The compounds of the following examples were active: 60, 70, 1002, 1004, 1005, 1036, 197.

[2] = system: Leptinotarsa decemlineata; assay: Example L: potato leaves and larvae sprayed, Colorado beetle mortality; conditions: 500 ppm or less, after 4 days
Experimental: Potato leaves were populated with larvae of the Colorado beetle (Leptinotarsa decemlineata). Leaves and larvae were then sprayed with an aqueous solution of the formulated compound to be examined. After 4 days of storage at about 25° C., the effect of the compound on the larvae was determined (mortality). The compounds of the following examples were active: 60, 70, 1002, 1004, 1005, 1036, 1047, 197.

Ctenocephalides felis = assay: Example M: cat fleas fed with treated cattle blood, mortality; conditions: 500 ppm or less; adult fleas fed blood-preparation mixture; after 48 hours
Experimental: The formulated compound was mixed with defibrinated cattle blood. 10 adult cat fleas (Ctenocephalides felis) were fed with this blood-preparation mixture. After 48 hours at about 38° C., the effect of the compound on the fleas was determined (mortality). The compounds of the following examples were active: 70, 1002, 1004, 1005, 1036, 60, 197, 1057.

Plutella maculipennis [3] = assay: Example W: cabbage plant, root-systemic activity on diamondback moth larvae; conditions: 500 ppm or less; cabbage plant in treated water, populated after one week; after 3 days
Experimental: 2.4 ml of an aqueous solution of the formulated compound to be examined were pipetted into a bottle filled with 21.6 ml of water. A 14-day-old cabbage plant was transferred into the bottle. After one week, the plant was populated with 5 larvae of the diamondback moth (Plutella maculipennis). Plants and animals were then stored in a climatized chamber (23° C., 40–60% relative atmospheric humidity). After 3 days of storage, the root-systemic activity of the compound on the larvae was determined (mortality). The following examples were active: 1036, 70, 60.

Spodoptera exigua [4] = assay: Example X: dipped freeze-dried diet cube, sugar beet armyworm L2 larvae mortality; conditions: 500 ppm or less, after 4 days
Experimental: Insect diet (as freeze-dried cube) was dipped into an aqueous solution of the formulated compound to be examined and then placed into a Petri dish. 10 L2 larvae of the sugar beet armyworm (Spodoptera exigua) were then added. The Petri dish was then closed with a lid. After 4 days of storage at about 23° C., the mortality among the larvae was determined. The following examples were active: 1036, 60.

Spodoptera exigua [5] = assay: Example Y: cotton plants sprayed, cut leaves, sugar beet armyworm mortality; conditions: 500 ppm or less, leaves cut after drying, L2 larvae, after 4 days
Experimental: Cotton plants were sprayed with an aqueous solution of the formulated compound to be examined. After drying, leaves were cut off, placed into a Petri dish and populated with 5 L2 larvae of the sugar beet armyworm (Spodoptera exigua). After 4 days of storage at about 23° C., the mortality among the larvae was determined. The following examples were active: 1036, 70, 60, 1047, 197.

[6] = system: Trialeurodes vaporariorum; assay: Example AD: bush beans sprayed, white fly larvicidal action; conditions: 500 ppm or less; bush beans sprayed after hatching; after 11 days
Experimental: For oviposition, bush beans (Phaseolus vulgaris) were populated for 48 hours with adults of the white fly (Trialeurodes vaporariorum). After the larvae had hatched, the plants were sprayed to run-off point with an aqueous solution of the formulated compound to be examined. After 11 days, the larvicidal action was determined. The following examples were active: 1036, 70, 60, 1040, 197.

Heliothis virescens = assay: Example AH: sprayed cotton leaves, antifeeding activity on tobacco budworm larvae; conditions: 500 ppm or less, L2 larvae, after 2, 3 and 4 days
Experimental: Cotton leaves were placed into a Petri dish, sprayed with an aqueous solution of the formulated compound to be examined and, after drying, populated with 5 L2 larvae of the American tobacco budworm (Heliothis virescens). After 2, 3 and 4 days of storage at about 25° C., the antifeeding activity of the compound on the larvae was determined. The following examples were active: 1036, 70, 60.

CC1CCN(CC#Cc2cc(C(F)(F)F)cc(C(F)(F)F)n2)CC1 [Example 60]
active: effect on the larvae (mortality) (Spodoptera littoralis) | effect on the larvae (mortality) (Carpocapsa pomonella) | effect on the larvae (mortality) (Plutella maculipennis [1]) | effect on the larvae (mortality) [2] | effect on the fleas (mortality) (Ctenocephalides felis) | root-systemic activity on the larvae (mortality) (Plutella maculipennis [3]) | mortality among the larvae (Spodoptera exigua [4]) | mortality among the larvae (Spodoptera exigua [5]) | larvicidal action [6] | antifeeding activity on the larvae (Heliothis virescens)
